Key:
Type in all cases: cell-based, human
BDNF-exon IV = BDNF-exon IV expression in SH-SY5Y cells (qRT-PCR)
Description: (§1) Human SH-SY5Y neuroblastoma cells (Sigma-Aldrich), were cultured in 45% F12K, 45% MEM, and 10% FBS. Cells were treated with cholesterol, ASPD, ApoE3/ApoE4+cholesterol, or PKC activators for 24 h. Cholesterol was dissolved in ethanol. ApoE (20 nM) and cholesterol (100 μM) were mixed separately into the cultures. To block the ApoE receptors, cells were treated with RAP for 30 min before adding ApoE. Human primary neurons (ScienCell Research Laboratories) were plated on poly-L-lysine-coated plates and were maintained in neuronal medium (ScienCell Research Laboratories) supplemented with the neuronal growth supplements (ScienCell Research Laboratories). Half of the culture medium was changed every 3 d and fresh activators were added with every medium change to maintain viable neurons.
(§2) qRT-PCR was performed and the results analyzed as described previously (Schmittgen et al., Analyzing real-time PCR data by the comparative C(T) method, Nat. Protoc., 3:1101-1108, 2008; Sen et al., 2012 supra). Total RNA (500 ng) was reverse transcribed using oligo(dT) and Superscript III (Invitrogen) at 50° C. for 1 h. The cDNA products were analyzed using a LightCycler 480 II (Roche) PCR machine and LightCycler 480 SYBR Green 1 master mix following the manufacturer's protocol. Primers for PKCε (forward primer: […], reverse primer: […], PKCα (forward-[…], reverse: […]), PKC (forward: […], reverse: CCGATG […]), GAPDH (forward: […], reverse: […]), and BDNF (forward: […], reverse: […]; Origene).
BDNF promoter- and exon specific primers were used as described previously (Pruunsild et al., Dissecting the human BDNF locus: bidirectional transcription, complex splicing, and multiple promoters, Genomics, 90:397-406, 2007). BDNF-promotor I (PI) (forward: […], reverse: […]), BDNF-promotor II (PII) (forward: […], reverse: […]), BDNF-promotor III (PIII) (forward: […], reverse: […]), BDNF-promoter (IV) (PIV) (forward: […], reverse: […]), BDNF-promoter IX (PIX) (forward: […], reverse: […]) were from Invitrogen. […]

HDAC4 = HDAC4 nuclear translocation in SH-SY5Y cells (immunoblot); conditions: ApoE4+ASPD induced translocation, 24 h
Description: as §1
A PBS solution of 5×10^6 Human SH-SY5Y neuroblastoma cells was centrifuged and the resultant cell pellet was resuspended and washed twice with cold PBS. After the second wash, the cell pellet was resuspended in 500 μl of hypotonic buffer (20 mM Tris-Cl, pH 7.4, 10 mM NaCl, 3 mM MgCl2, and 1 mM PMSF) and incubated on ice for 15 min. Next, 25 μl of 10% NP-40 was added to the cell suspension and the sample was vortexed for 10 s. The homogenate was centrifuged for 10 min at 1000×g at 4° C. to obtain the cytoplasmic fraction (supernatant) and nuclear fraction (pellet). […] Protein concentration was measured using the Coomassie Plus (Bradford) Protein Assay kit (Pierce).
Protein in samples of the supernetant and nuclear fractions was separated by SDSPAGE in a 4-20% gradient Tris-Glycine gel (Invitrogen). […] The immunoblot proteins were detected using ImageQuant RT-ECL (GE Life Sciences) and densitometric quantification was performed using IMAL software, which was developed at our institution. […]

HDAC6 = HDAC6 nuclear translocation in SH-SY5Y cells (immunoblot); conditions: ApoE4+ASPD induced translocation, 24 h
Description: as §1
A PBS solution of 5×10^6 Human SH-SY5Y neuroblastoma cells was centrifuged and the resultant cell pellet was resuspended and washed twice with cold PBS. After the second wash, the cell pellet was resuspended in 500 μl of hypotonic buffer (20 mM Tris-Cl, pH 7.4, 10 mM NaCl, 3 mM MgCl2, and 1 mM PMSF) and incubated on ice for 15 min. Next, 25 μl of 10% NP-40 was added to the cell suspension and the sample was vortexed for 10 s. The homogenate was centrifuged for 10 min at 1000×g at 4° C. to obtain the cytoplasmic fraction (supernatant) and nuclear fraction (pellet). After removing the supernetant, the nuclear pellet was resuspended in 50 μl of complete cell extraction buffer (100 mM Tris-Cl, pH 7.4, 2 mM Na3VO4, 100 mM NaCl, 1% Triton X-100, 1 mM EDTA, 10% glycerol, 1 mM EGTA, 0.1% SDS, 1 mM NaF, 0.5% deoxycholate, 20 mM Na4P2O7, and 1 mM PMSF) and incubated on ice for 30 min with vortexing at 10 min intervals. The nuclear lysate was centrifuged at 14,000×g for 30 min at 4° C. to obtain the nuclear fraction (supernatant). Protein concentration was measured using the Coomassie Plus (Bradford) Protein Assay kit (Pierce).
Protein in samples of the supernetant and nuclear fractions was separated by SDSPAGE in a 4-20% gradient Tris-Glycine gel (Invitrogen). The protein was then transferred to nitrocellulose membrane. The membrane was blocked with BSA at room temperature for 15 min and incubated with primary antibody overnight at 4° C. After incubation, the membrane was washed thrice (3×) with TBS-T (Tris-buffered saline-Tween 20) and further incubated with alkaline-phosphatase-conjugated secondary antibody (Jackson Immunoresearch Laboratories) at 1:10,000 dilution for 45 min. Following incubation, the membrane was washed 3× with TBS-T and developed using the 1-step NBT-BCIP substrate (Pierce). […] The immunoblot proteins were detected using ImageQuant RT-ECL (GE Life Sciences) and densitometric quantification was performed using IMAL software, which was developed at our institution. […]

[1] = system: HDAC6-BDNF PIV association; assay: ChIP: HDAC6 association with BDNF promoter IV
Description: as §1
(§3) BDNF promoter- and exon specific primers were used as described previously (Pruunsild et al., Dissecting the human BDNF locus: bidirectional transcription, complex splicing, and multiple promoters, Genomics, 90:397-406, 2007). […]
(§4) ChIP was conducted using the SimpleChlP Enzymatic Chromatin IP kit (Cell Signaling Technology) following the manufacturer's protocol. […] The cumulative fluorescence for each amplicon was normalized to input DNA. […]

[2] = system: HDAC6-BDNF PIII association; assay: ChIP: HDAC6 association with BDNF promoter III
Description: as §1, §3, §4

PKCε mRNA = PKCε mRNA expression in SH-SY5Y cells (qRT-PCR); conditions: ASPD+ApoE4 treated cells plus PKC activator
Description: as §1
qRT-PCR was performed and the results analyzed as described previously (Schmittgen et al., Analyzing real-time PCR data by the comparative C(T) method, Nat. Protoc., 3:1101-1108, 2008; Sen et al., 2012 supra). Total RNA (500 ng) was reverse transcribed using oligo(dT) and Superscript III (Invitrogen) at 50° C. for 1 h. The cDNA products were analyzed using a LightCycler 480 II (Roche) PCR machine and LightCycler 480 SYBR Green 1 master mix following the manufacturer's protocol. […]

BDNF mRNA = BDNF mRNA expression in SH-SY5Y cells (qRT-PCR)
Description: as §1, §2

## CCCCCC1CC1CC1CC1CCCCCCCC(=O)OC (stereo not shown) [DCPLA-ME, DCPLA methyl ester]
BDNF-exon IV; ApoE3+Chol+DCPLA-ME
  BDNF-exon IV expression: 1.98±0.13
BDNF-exon IV; ApoE4+Chol+DCPLA-ME
  BDNF-exon IV expression: 0.74±0.01
BDNF-exon IV; DCPLA-ME+Chol
  BDNF-exon IV expression: 1.85±0.27 fold
HDAC4
  reduction of nuclear import of HDAC4: 35±6.9%
HDAC6
  reduction in nuclear HDAC6: 56±5.9%
[1]
  effect on ApoE4+Chol induced HDAC6-PIV association: blocked the ApoE4+Chol induced increase
[2]
  effect on ApoE4+Chol induced HDAC6-PIII association: blocked the ApoE4+Chol induced increase
PKCε mRNA
  PKCε mRNA levels: 0.95±0.09 fold
BDNF mRNA; cells treated with ApoE4+Chol+DCPLA-ME
  BDNF expression: 0.95±0.1
BDNF mRNA; cholesterol treated cells
  BDNF expression: 1.91±0.21 fold

Reference: US20180217163A1, “TREATMENT OF NEURODEGENERATIVE CONDITIONS USING PKC ACTIVATORS AFTER DETERMINING THE PRESENCE OF THE APOE4 ALLELE” (priority 2015, published 2018)
